Counter-ions that a name gives are not always drawn.
What was measured:
[1] = target: T1, human V-1 receptor (V1a) (Homo sapiens, UniProt P37288); assay: In vitro recombinant vasopressin receptor binding assay (3H-arginine vasopressin displacement), V1a; details: 0.2 μM test compound, cloned human receptor membranes from HEK-293 cells; for inhibition at 0.2 µM: read-out: Binding V1a (% inhib @ 0.2 μM)
T1 construct: expressed in transfected cells; host or cells: HEK-293 (membranes)
Experimental: (§1) Compounds were assessed for their ability to displace ^3H-arginine vasopressin from the human V-1 or V-2 receptor in HEK-293 cells. Assay buffer is 50 mM Tris-Cl, 5 mM MgCl2, 0.1% BSA (pH 7.5) containing 5 ug/ml of aprotinin, leupeptin, pepstatin, 50 ug/ml bacitracin, and 1 mM Pefabloc. ^3H-vasopressin is ^3H-arginine-8-vasopressin (68.5 Ci/mmol, final concentration in assay is 0.65-0.75 nM). Into wells of 96-well round bottom polypropylene plates were added buffer, test compound, membrane (containing cloned human V-1 or V-2 receptor), and ^3H-vasopressin. The reaction plates were allowed to sit at room temperature for one hour. The samples were filtered through Unifilter GF/C plates (presoaked in 0.3 polyethyleneimine). The plates were washed 5 times with cold physiological saline containing 0.05% Tween 20. After drying, the bottom of the filter plates were sealed and 0.025 ml of Microscint-20 was added to each filter. The top of the plate was sealed, and the plate was counted. Non-specific binding was determined by the addition of 1.25 uM arginine-8-vasopressin in those wells.

[2] = target: T2, human V2 receptor (Homo sapiens, UniProt P30518); assay: In vitro recombinant vasopressin receptor binding assay (3H-arginine vasopressin displacement), V2; details: for IC50: cloned human receptor membranes from HEK-293 cells
T2 construct: expressed in transfected cells; host or cells: HEK-293
Experimental: as §1

[3] = target: T2, human V2 receptor; assay: Inhibition of AVP-induced cAMP accumulation in transfected HEK-293 cells expressing human V2 receptor; assay type: cell-based; details: AVP 1 nM, HEK-293 expressing human V2, read-out: Functional V2 (IC50; μM)
Experimental: HEK-293 cells were grown in DMEM media supplemented with 10% FBS and glutamine (Gibco BRL, Grand Island, N.Y.). Once transfected, the cells were passed biweekly by trypsinization and seeded into 96 well plates at 33,000 cells per well. HEK-293 were transfected with human V1a, V1b or V2 DNA using DMRIE-C reagent from Life Technologies, Inc., Grand Island, N.Y. Cells were tested for their responsiveness to vasopressin 48 h after transfection. Stable lines were generated by selecting cells grown in culture media containing geneticin (500 μg/mL, Life Technologies).
The accumulation of cAMP was measured in transfected HEK-293 expressing the human V2 receptor. The cells were cultured 4-7 d in 96-well plates. On the day of testing in this assay, cells were washed twice in assay media (DMEM/F12 containing 0.1% BSA). The cells were treated with the test compound for 5 min and then given AVP (1 nM) in assay media containing 1 mM isobutylmethylxanthine. After 5 min, 0.5 N HCl was added to disrupt the cells and solubilize cAMP. The cAMP content of 20 μL of the cell lysate in each well was measured using cAMP Flashplates (NEN Life Sciences). Data are expressed as pmol cAMP/well. While the assay is optimized to detect and quantitate antagonistic activity, agonistic activity would also be apparent at the higher concentrations of test compounds.
The data from the cAMP accumulation and the calcium mobilization assays are expressed as IC50 values as determined from dose response curves.

T1 sequence (P37288 whole entry): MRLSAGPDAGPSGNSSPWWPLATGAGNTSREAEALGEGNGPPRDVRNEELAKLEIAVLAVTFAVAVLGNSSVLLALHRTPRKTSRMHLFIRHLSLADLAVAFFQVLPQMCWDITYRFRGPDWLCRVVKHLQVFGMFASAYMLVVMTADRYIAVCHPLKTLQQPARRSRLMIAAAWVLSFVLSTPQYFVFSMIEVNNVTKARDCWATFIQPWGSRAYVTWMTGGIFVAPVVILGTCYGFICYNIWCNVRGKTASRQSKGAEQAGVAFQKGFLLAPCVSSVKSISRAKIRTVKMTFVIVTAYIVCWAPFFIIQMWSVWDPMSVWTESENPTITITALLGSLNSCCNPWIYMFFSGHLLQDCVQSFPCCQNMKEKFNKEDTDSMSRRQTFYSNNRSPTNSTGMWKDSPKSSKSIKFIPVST
T2 sequence (P30518 whole entry): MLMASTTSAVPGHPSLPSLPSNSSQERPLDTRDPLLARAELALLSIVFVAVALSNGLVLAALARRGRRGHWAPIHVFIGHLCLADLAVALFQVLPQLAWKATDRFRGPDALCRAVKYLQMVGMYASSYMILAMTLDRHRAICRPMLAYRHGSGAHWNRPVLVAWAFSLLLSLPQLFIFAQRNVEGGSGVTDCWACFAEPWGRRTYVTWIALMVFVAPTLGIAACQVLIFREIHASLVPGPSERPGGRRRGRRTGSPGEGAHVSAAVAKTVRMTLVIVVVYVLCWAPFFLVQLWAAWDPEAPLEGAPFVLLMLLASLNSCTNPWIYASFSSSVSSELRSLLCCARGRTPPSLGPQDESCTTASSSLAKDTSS

inhibition at 0.2 µM [1] [%] | IC50 [2] [µM] | IC50 [3] [µM] | inhibition at 0.2 µM ([2]; read-out: Binding V2 (% inhib @ 0.2 μM)) [%] | Compound | Binding V1a (% inhib @ 0.2 μM) [1] [%]
1 | 0.5 |  |  | O=C(Nc1ccc(C(=O)N2C[C@@H](CO)N(Cc3ccccc3)Cc3ccccc32)c(Cl)c1)c1ccccc1-c1ccccc1 [Cpd 1, (S)-Biphenyl-2-carboxylic acid [4-(4-benzyl-3-hydroxymethyl-2,3,4,5-tetrahydro-benzo[e][1,4]diazepine-1-carbonyl)-3-chloro-phenyl]-amide] | 
0 | 0.24 | 0.28 |  | CSC[C@@H]1CN(C(=O)c2ccc(NC(=O)c3ccccc3-c3ccccc3)cc2Cl)c2ccccc2CN1C [Cpd 2, (S)-Biphenyl-2-carboxylic acid [3-chloro-4-(4-methyl-3-methylsulfanylmethyl-2,3,4,5-tetrahydrobenzo[e][1,4]diazepine-1-carbonyl)-phenyl]-amide] | 
0 | 0.34 | 0.71 |  | CN1Cc2ccccc2N(C(=O)c2ccc(NC(=O)c3ccccc3-c3ccccc3)cc2Cl)C[C@@H]1CN1CCCC1 [Cpd 3, (S)-Biphenyl-2-carboxylic acid [3-chloro-4-(4-methyl-3-pyrrolidin-1-ylmethyl-2,3,4,5-tetrahydrobenzo[e][1,4]diazepine-1-carbonyl)-phenyl]-amide ditrifluoroacetate] | 
0 |  | > 10 | 22 | CN1Cc2ccccc2N(C(=O)c2ccc(NC(=O)c3ccccc3-c3ccccc3)cc2Cl)C[C@H]1COC1CCCC1 [Cpd 4, (S)-Biphenyl-2-carboxylic acid [3-chloro-4-(3-cyclopentyloxymethyl-4-methyl-2,3,4,5-tetrahydrobenzo[e][1,4]diazepine-1-carbonyl)-phenyl]-amide trifluoroacetate] | 
0 | 0.066 | 0.025 |  | COC[C@@H]1CN(C(=O)c2ccc(NC(=O)c3ccccc3-c3ccccc3)cc2Cl)c2ccccc2CN1C [Cpd 6, (S)-Biphenyl-2-carboxylic acid [3-chloro-4-(3-methoxymethyl-4-methyl-2,3,4,5-tetrahydrobenzo[e][1,4]diazepine-1-carbonyl)-phenyl]-amide trifluoroacetate] | 
4 | 0.05 | 0.02 |  | CS(=O)(=O)N1Cc2ccccc2N(C(=O)c2ccc(NC(=O)c3ccccc3-c3ccccc3)cc2Cl)C[C@H]1CO [Cpd 7, (S)-Biphenyl-2-carboxylic acid [3-chloro-4-(3-hydroxymethyl-4-methanesulfonyl-2,3,4,5-tetrahydrobenzo[e][1,4]diazepine-1-carbonyl)-phenyl]-amide] | 
0 | 0.4 | 1.08 |  | CS(=O)(=O)OC[C@@H]1CN(C(=O)c2ccc(NC(=O)c3ccccc3-c3ccccc3)cc2Cl)c2ccccc2CN1S(C)(=O)=O [Cpd 8, (S)-methanesulfonic acid 1 {4-[(biphenyl-2-carbonyl)-amino]-2chloro-benzoyl}-4-methanesulfonyl-2,3,4,5-tetrahydro-1H-benzo[e][1,4]diazepin-3-ylmethyl ester] | 
2 | 0.045 | 0.04 |  | CC(=O)OC[C@@H]1CN(C(=O)c2ccc(NC(=O)c3ccccc3-c3ccccc3)cc2Cl)c2ccccc2CN1C(C)=O [Cpd 9, (S)-Acetic acid 4-acetyl-1-{4-[(biphenyl-2-carbonyl)-amino]-2-chloro-benzoyl}-2,3,4,5-tetrahydro-1H-benzo[e][1,4]diazepin-3-ylmethyl ester] | 
2 | 0.065 | 0.03 |  | CCCS(=O)(=O)N1Cc2ccccc2N(C(=O)c2ccc(NC(=O)c3ccccc3-c3ccccc3)cc2Cl)C[C@H]1CO [Cpd 10, (S)-Biphenyl-2-carboxylic acid {3-chloro-4-[3-hydroxymethyl-4-(propane-1-sulfonyl)-2,3,4,5-tetrahydrobenzo[e][1,4]diazepine-1-carbonyl]-phenyl}-amide] | 
0 | 0.23 | 0.773 |  | O=C(Nc1ccc(C(=O)N2C[C@@H](CO)N(S(=O)(=O)c3ccccc3)Cc3ccccc32)c(Cl)c1)c1ccccc1-c1ccccc1 [Cpd 11, (S)-Biphenyl-2-carboxylic acid [4-(4-benzenesulfonyl-3-hydroxymethyl-2,3,4,5-tetrahydrobenzo[e][1,4]diazepine-1-carbonyl)-3-chloro-phenyl]-amide] | 
6 | 0.028 | 0.02 |  | CC(=O)N1Cc2ccccc2N(C(=O)c2ccc(NC(=O)c3ccccc3-c3ccccc3)cc2Cl)C[C@H]1CO [Cpd 12, (S)-Biphenyl-2-carboxylic acid [4-(4-acetyl-3-hydroxymethyl-2,3,4,5-tetrahydro-benzo[e][1,4]diazepine-1-carbonyl)-3-chloro-phenyl]-amide] | 
 |  |  |  | (S)-Biphenyl-2-carboxylic acid [3-chloro-4-(4-methyl-3-morpholino-4-ylmethyl-2,3,4,5-tetrahydrobenzo[e][1,4]diazepine-1-carbonyl)-phenyl]-amide ditrifluoroacetate [Cpd 5] | 0
